Experimental findings from ChEMBL document CHEMBL1201862, “PubChem BioAssay data set” (2004) are described below.

The source made the active and inactive calls.

Assay [1] has as its system H9c2. The assay can be described thus: cells. The assay is classed as functional, cell-based. Particulars: Rattus norvegicus, H9c2, Myocardium.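 Note: confirmatory concentration-response retest of ultra-high-throughput screening hits for modulation of myocardial damage; cell death induced by hydrogen peroxide oxidative stress; compound pretreatment for 60 min then peroxide exposure for 2 h; potency is for protecting the cells against peroxide damage rather than for killing them.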
The nature of assay [2]: microbe, parasite or virus in culture. The assay is classed as functional. Particulars: Mycobacterium tuberculosis.
Assay [3] relates to INS1. The assay can be described thus: beta cell apoptosis inhibitors, cytokine rescue, dose response, luminescence, retest (AID 449756).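 Note: cell death triggered by IL-1 beta plus TNF-alpha plus IFN-gamma mixture; protective hits raise ATP signal compared with cytokine alone wells.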 Particulars: Rattus norvegicus. It is filed as functional, cell-based.
Assay [4] deals with FAD-linked sulfhydryl oxidase ALR (Homo sapiens, UniProt P55789). Nature of the assay: inhibitors of human ALR sulfhydryl oxidase, dose response, biochemical, H2O2 detection, luminescence, cherry-pick (AID 493248).
Sequence of FAD-linked sulfhydryl oxidase ALR (P55789 whole entry): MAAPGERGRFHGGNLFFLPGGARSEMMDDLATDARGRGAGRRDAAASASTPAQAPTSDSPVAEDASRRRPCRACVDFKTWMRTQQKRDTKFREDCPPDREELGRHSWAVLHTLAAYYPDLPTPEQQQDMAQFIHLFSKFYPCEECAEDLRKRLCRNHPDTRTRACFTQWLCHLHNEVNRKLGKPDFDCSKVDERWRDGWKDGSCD
A short description of assay [5]: cytotoxicity toward NIH3T3 fibroblasts, dose response, counter-screen, cell-based, ATP luminescence, mouse fibroblasts (AID 2010).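 Note: cells exposed to compound for about 90 hours before reading.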 It is filed as functional. (A counterscreen serves to expose hits that act by an unwanted route or on another target.)
Assay [6] can be described thus: inhibitors of intracellular T. cruzi replication, confirmation, NIH3T3 host cells, beta-gal luminescence (AID 2044).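 Note: intracellular parasites grown in NIH/3T3 mouse fibroblasts as host cells; luminescent beta-galactosidase reporter signal from transgenic T. cruzi replicating inside host cells; inhibitors lower the luminescence signal.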 It is filed as functional, cell-based.
Assay [7] has as its target T1, High affinity choline transporter 1 (Homo sapiens, UniProt Q9GZV3).
T1 sequence (Q9GZV3 whole entry): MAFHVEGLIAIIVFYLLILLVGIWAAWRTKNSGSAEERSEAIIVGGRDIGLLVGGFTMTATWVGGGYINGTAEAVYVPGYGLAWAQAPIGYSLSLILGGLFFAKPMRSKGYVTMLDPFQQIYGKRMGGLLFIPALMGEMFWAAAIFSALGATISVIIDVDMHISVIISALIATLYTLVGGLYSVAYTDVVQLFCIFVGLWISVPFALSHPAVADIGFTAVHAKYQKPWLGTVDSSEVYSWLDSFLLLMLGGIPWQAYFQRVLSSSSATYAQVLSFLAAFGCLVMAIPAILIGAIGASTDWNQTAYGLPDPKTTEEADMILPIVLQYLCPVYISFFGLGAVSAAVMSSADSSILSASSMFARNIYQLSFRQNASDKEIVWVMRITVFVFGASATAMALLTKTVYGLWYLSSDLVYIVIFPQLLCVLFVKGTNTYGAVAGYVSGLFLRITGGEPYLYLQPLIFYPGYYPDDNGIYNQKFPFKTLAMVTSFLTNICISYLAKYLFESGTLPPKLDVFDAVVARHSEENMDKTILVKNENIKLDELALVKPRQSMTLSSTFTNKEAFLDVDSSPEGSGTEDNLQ
The assay can be described thus: CHT inhibitors, dose response, cell-based, 5-point CRC, membrane potential dye (AID 504840). The assay is classed as functional.

The target in assay [8] is T2, Corticotropin-releasing factor receptor 2/Corticotropin-releasing factor-binding protein (Homo sapiens, UniProt P24387+Q13324).
T2 sequence (Q13324 whole entry): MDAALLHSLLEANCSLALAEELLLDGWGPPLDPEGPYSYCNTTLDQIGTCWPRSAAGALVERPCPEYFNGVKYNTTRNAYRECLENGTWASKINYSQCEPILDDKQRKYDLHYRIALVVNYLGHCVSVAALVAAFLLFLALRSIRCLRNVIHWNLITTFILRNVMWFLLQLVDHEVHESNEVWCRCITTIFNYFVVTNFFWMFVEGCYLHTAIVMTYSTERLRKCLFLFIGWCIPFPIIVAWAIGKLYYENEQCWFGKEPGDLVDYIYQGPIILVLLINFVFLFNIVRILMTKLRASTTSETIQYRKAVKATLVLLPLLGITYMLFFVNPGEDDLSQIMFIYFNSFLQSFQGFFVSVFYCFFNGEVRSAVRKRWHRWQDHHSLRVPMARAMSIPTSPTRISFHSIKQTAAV
T2 sequence (P24387 whole entry): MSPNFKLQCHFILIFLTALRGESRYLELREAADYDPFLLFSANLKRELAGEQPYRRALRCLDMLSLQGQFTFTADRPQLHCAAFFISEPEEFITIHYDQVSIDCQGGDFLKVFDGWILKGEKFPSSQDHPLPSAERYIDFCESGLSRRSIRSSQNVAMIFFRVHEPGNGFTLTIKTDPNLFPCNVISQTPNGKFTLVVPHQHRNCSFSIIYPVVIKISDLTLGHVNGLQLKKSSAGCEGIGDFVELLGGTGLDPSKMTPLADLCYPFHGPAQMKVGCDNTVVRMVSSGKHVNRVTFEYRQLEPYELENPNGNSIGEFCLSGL
Nature of the assay: activators of CRF receptor 2 with binding protein – uHTS hits, confirmation (AID 602473). The assay is classed as functional. Particulars: read-out: EC50_Mean.

In assay [9] the target is T2, Corticotropin-releasing factor receptor 2/Corticotropin-releasing factor-binding protein. The assay can be described thus: Dose Response confirmation of uHTS hits for small molecule antagonists of the CRF-binding protein and CRF-R2 receptor complex. It is filed as functional. Particulars: read-out: IC50_Mean.
Assay [10] is described as follows: cytotoxicity toward DRD oncogenic fibroblasts, dose response, cell-based, non-viral oncogenic, luminescence (AID 1934). The assay is classed as functional. Particulars: Homo sapiens.
In assay [11] the test system is BJ. Nature of the assay: cytotoxicity toward BJ-TERT-LT-ST fibroblasts, dose response, cell-based, RAS-independent, luminescence (AID 1935).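 Note: BJ fibroblasts immortalized with TERT plus LT and ST oncogenes.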 It is filed as functional. Particulars: Homo sapiens.
Assay [12] deals with BJ. Nature of the assay: cells. It is filed as functional, cell-based. Particulars: Homo sapiens.
Assay [13] concerns BJ. The assay can be described thus: cytotoxicity toward BJ-TERT fibroblasts, dose response, cell-based, RAS-independent, luminescence (AID 1933). The assay is classed as functional. Particulars: Homo sapiens.
Assay [14] deals with T3, Rac GTPase-activating protein 1 (Homo sapiens, UniProt Q9H0H5).
T3 sequence (Q9H0H5 whole entry): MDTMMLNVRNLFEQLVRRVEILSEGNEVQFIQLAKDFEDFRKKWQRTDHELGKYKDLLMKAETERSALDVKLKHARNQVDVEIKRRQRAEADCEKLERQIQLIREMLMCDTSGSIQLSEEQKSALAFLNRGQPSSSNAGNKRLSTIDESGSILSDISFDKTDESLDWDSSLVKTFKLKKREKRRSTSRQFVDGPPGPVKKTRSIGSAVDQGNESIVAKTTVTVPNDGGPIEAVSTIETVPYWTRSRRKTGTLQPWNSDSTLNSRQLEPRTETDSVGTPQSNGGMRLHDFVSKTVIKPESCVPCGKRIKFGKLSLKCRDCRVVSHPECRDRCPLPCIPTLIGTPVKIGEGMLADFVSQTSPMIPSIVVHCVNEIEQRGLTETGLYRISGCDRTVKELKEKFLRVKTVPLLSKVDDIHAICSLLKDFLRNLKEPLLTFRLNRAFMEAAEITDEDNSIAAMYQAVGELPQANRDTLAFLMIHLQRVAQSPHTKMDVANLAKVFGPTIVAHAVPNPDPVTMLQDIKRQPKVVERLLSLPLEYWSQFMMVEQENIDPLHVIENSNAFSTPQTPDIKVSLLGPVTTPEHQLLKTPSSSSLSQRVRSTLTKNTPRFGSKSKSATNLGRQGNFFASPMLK
The assay can be described thus: MgcRacGAP GTPase-activating activity inhibitors, confirmation, biochemical, ADP Hunter fluorescence, primary and confirmatory (AID 624330). The assay is classed as functional.

Assay [15] is described as follows: LGR2 antagonists, dose response, cell-based, HEK293, CRE-luciferase reporter, cherry pick, set 2 (AID 743343).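 Note: transfected cells were stimulated with diluted bursicon conditioned medium after compound addition.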 The assay is classed as functional. In general terms: Reporter assays use an easily measured gene product as a stand-in for the process of interest.
Assay [16] can be described thus: A549 cell cytotoxicity, dose response, cytotoxicity control, plate reader, cherry-pick, antagonist series (AID 743412). The assay is classed as functional, cell-based.
A short description of assay [17]: MC4R antagonists, dose response, counter-screen for LGR2 antagonist project, cell-based, plate reader, cherry pick (AID 743444).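 Note: transfected HEK 293 cells stimulated with alpha-MSH peptide; potency of inhibitors of the alpha-MSH evoked signal.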 The assay is classed as functional.

With `Cc1cccc(NC(=O)c2[nH]cnc2C(=O)NCC(=O)OCc2ccccc2)c1`, the IC50 in assay [1] was > 79 µM (inactive).

`Cc1ccc(/C=C(\NC(=O)c2ccc(C)cc2)c2n[nH]c(S)n2)cc1`: the CC50 in assay [2] was > 40 µM (active).

For the compound `CSCCCN=C(S)N1CCN(c2ccc(C(C)=O)cc2)CC1`, the CC50 in assay [2] is > 40 µM (active).

On to `CCOC(=O)COc1ccc2c3c(c(=O)oc2c1)CCCC3`, for which, in assay [1], the IC50 was 31.2 µM (inactive).

Turning to `CCn1c(-c2ccc(N(C)C)cc2)nc2ccccc21`, the AC50 in assay [3] is 4.25 µM (active); in [4], 1.48 µM (active). Also, the EC50 in assay [5] was > 60 µM (not active); in assay [6] it was 1.67 µM (active).

For the compound `O=C(CCc1nc(O)c2ccccc2n1)N1CCN(c2ccccc2Cl)CC1`, in [1], the IC50 is > 79 µM (inactive).

Take `CCOc1ccc(CCNC(=O)c2cc3c(C)nccc3nc2O)cc1OCC`: in assay [1], the IC50 was > 79 µM (inactive).

Turning to `O=C(c1ccc(O)cc1)c1ccc(Cl)cc1`, in [7], the IC50 is 11 µM (active).

With `CC(C)c1ccc(NC2CCCN(C(=O)c3cc(C(C)C)nc(N)n3)C2)cc1` (stereo not given), in assay [4], the AC50 was 0.714 µM (active).

Turning to `O=C(CCl)Nc1nccs1`, the EC50 in assay [8] is > 53 µM (inactive). In assay [9], the IC50 was > 47.1 µM (inactive). For the same compound, the CC50 in [2] is 13.7 µM (active).

As to `CN(C)c1ccc(/C=N/NC(=O)c2ccccn2)cc1`, the AC50 in [4] is 35.5 µM (active).

Take `CC(OC(=O)Cc1nnc(O)c2ccccc12)C(=O)Nc1ccc(F)cc1` (stereo not given): the IC50 in assay [1] is > 79 µM (inactive).

As for `CCOC(=O)c1cccc(NC(=O)CCS(=O)(=O)c2cccc3nsnc23)c1`, the IC50 in assay [7] was 14.8 µM (active).

Regarding `Cc1ncsc1CCC(=O)N1CCCC(Nc2ccc(C(C)C)cc2)C1` (stereo not given), the concentration at half-maximal activity (AC50) in assay [4] is 3.68 µM (active).

Take `CC1CCN(S(=O)(=O)c2nnc(NC(=O)c3cccc([N+](=O)[O-])c3)s2)CC1`: the IC50 in [7] was 11.5 µM (active).

Consider `O=C1CCCc2cc3c(cc21)CC1(C3)Cc2cc3c(cc2C1)C(=O)CCC3`, for which the EC50 was 15.6 µM (active) in assay [10], 3.95 µM (inconclusive) in [11], 33 µM (active) in assay [12] and 9.1 µM (active) in assay [13].

`CC1(C(=O)N2CCC(CC3CC(c4ccc(Cl)cc4)=NO3)(C(=O)NCC3CCCCC3)CC2)CC1` (stereo not given): the IC50 in [7] was 6.92 µM (active).

In the case of `Cc1cc(N2CCCC2)ccc1NC(=O)CN1C(=O)NC2(CCCCC2)C1=O`, in [14], the IC50 is 268 µM (active). Moreover, the AC50 in assay [4] was 0.644 µM (active).

Turning to `CCCOc1ccc(C(CC(=O)O)NC(=O)CC(c2ccccc2)c2ccccc2)cc1` (stereo not given), the IC50 in [7] was 12 µM (active).

For `CCOC(=O)CC1(CC(=O)OCC)NC(=O)c2c(C)sc(C(=O)OCC)c2N1`, the IC50 in assay [7] is 13.8 µM (active).

With `COc1ccc(OC)c(C2C(C#N)=C(N)Oc3cc(N)ccc32)c1` (stereo not given), in assay [4], the AC50 was 3.1 µM (active).

Take `Cc1cccc(NC(=O)c2oc3ccc(S(=O)(=O)N4CCOCC4)cc3c2C)c1C`: the IC50 in assay [1] was > 79 µM (inactive).

Consider `COc1ccc(-c2ccc3c(c2)S(=O)(=O)c2cccc(C(=O)NC[C@@H]4CCCO4)c2C3=O)cc1OC`, for which, in [1], the IC50 was > 79 µM (inactive).

With `CCCn1nc2cc(C(=O)NCc3ccc(C)cc3)ccc2c1OCC`, the IC50 in [7] was 8.18 µM (active).

In the case of `Cc1cc(C)c2c(NC(=O)CCl)nn(C)c2n1`, the EC50 was 29.2 µM (active) in [10], > 150 µM (inconclusive) in assay [11], > 150 µM (not active) in assay [12] and 28.7 µM (active) in assay [13].

As for `COc1ccccc1N/C=C/c1onc(C)c1[N+](=O)[O-]`, the AC50 in assay [15] is 3.4 µM (active); in [16], > 52 µM (inactive); in assay [17] it was 4.75 µM (active).

In general, AC50 refers to the concentration at which the activity in the assay is half-maximal.
